Test results taken from patent publication US20020192178A1, “Leguminous extract heavy-metal-scavenging anti-pollution agent” (L'OREAL, priority 2001, published 2002).

Test system: immortalized human keratinocytes (DK7-NR)
Assay: Protective effect against cadmium cytotoxicity, Neutral Red incorporation test
Type: cell-based
Conditions: cadmium chloride alone, 0% extract of maize, 24 hours; read-out: IC50 (concentration of CdCl2 inducing a 50% decrease in viability)
Procedure: Heavy metals such as cadmium, nickel, lead, mercury, etc. can cause cytotoxicity on the cells of various organs including the skin. The cytotoxic effect of cadmium on human keratinocytes in culture was evaluated by a technique for measuring the cell viability: the Neutral Red incorporation test (Culture Methods. 1984, 9, 7-9).
The study was performed on a monolayer culture of immortalized human keratinocytes (DK7-NR) by the Nestle research center. The cells are inoculated on D-3 in 96-well culture dishes at a rate of 25 000 cells/cm^2 in 100 µl of culture medium (medium defined without calf serum, NR2, Biofluids). The incubations are performed in an incubator at 37° C. in humid atmosphere enriched with 5% CO2.
The cells are treated [lacuna] 24 hours with increasing concentrations (0, 10, 25, 50, 75, 100, 150 and 200 μM) of cadmium chloride (CdC12) alone, so as to determine its cytotoxicity. In parallel, a treatment is performed under the same conditions, but in the presence of the extract of maize (Phytovityl® at 0.5% and 1%, non-cytotoxic concentrations for the cells). The incubations are performed in an incubator at 37° C., 5% CO2 in a humid atmosphere.
At the end of the contact period, the cell viability is determined by means of a Neutral Red (POS 55/006) incorporation test, with spectrophotometric reading at 500 nm. […]

## [Cl][Cd][Cl] [cadmium chloride]
  IC50: 37.7 µM
